In the experiment the test system is C57/b16 mice. The experiment can be described thus: acetone-ether-water (AEW) induced pruritus in a mouse model, spontaneous scratching recorded for 60 min. It is filed as in vivo. The protocol: The objective of this study was to examine the efficacy of topical formulations of Tapinarof in the strength of 0.5%, 1% and 2% as a treatment in acetone-ether-water (AEW) induced pruritus in a mouse model.
The model of inducing itching sensation was done by treating C57/b16 mice with AEW as was conducted in other studies in the past.
The mice were shaved 24 h prior to study to expose the skin. For 5 days, twice a day (at least 3-4 hours apart), mice were applied acetone and ether (mixed at 1:1 ratio) on the right cheek for 30 seconds, and immediately afterwards applied on cheek water for 30 seconds.
Day 1-3: AEW was treated twice (at least 3-4 hours apart), AE 30s, Water 30s.
Day 4-5: AEW was treated twice (at least 3-4 hours apart), AE 30s, Water 30s, topical administration of vehicle, tapinarof 0.5%, tapinarof 1%, tapinarof 2% (−20 h before evaluation) and randomization.
Day 5: AEW was treated once, topical administration of vehicle, tapinarof 0.5%, tapinarof 1%, and tapinarof 2% (−2 h before evaluation), positive control dosing (−30 min), video record (evaluation), animal weighing, sacrificing, plasma collection and skin sample collection.
Immediately after AEW application on day 5, the mice were put into acrylic chambers and behavior was recorded for 60 min using a video camera under unmanned conditions to assess spontaneous scratching. Videos were manually scored for time spent spontaneously scratching the affected cheek. Scratching is defined as an episode in which the mouse lifted its paw and scratched continuously for any length of time until the paw returned to the floor. Only scratches of the affected cheek with their hind paws were counted. Other scratching behaviors were disregarded. The number of scratches was summarized for each animal and the average number per group was calculated. In addition, the scratching time (seconds) was also evaluated, and the average of scratching time was calculated. Data are expressed as the mean±S.E.M. statistically significant differences between two groups were evaluated using paired or non-paired Student's t-test as required.

These results are taken from patent US20210346279A1, “COMPOSITIONS COMPRISING TAPINAROF FOR THE TREATMENT OF PRURITIS” (Sol-Gel Technologies Ltd., priority 2020, published 2021).

Consider `CC(C)c1c(O)cc(/C=C/c2ccccc2)cc1O` [tapinarof], for which the “effect on scratching compared with the positive control” value (topical formulation 0.5% w/w) is reported as “comparable to the positive control”. In addition, the “effect over the vehicle (scratching sessions and periods)” value (topical formulation 0.5% w/w, applied -20 h and -2 h before evaluation) is listed as roughly 40%. Besides, the “effect on scratching sessions and periods” value (topical formulation 1% w/w (percent increased twice versus 0.5%)) was “did not reduce the scratching sessions and periods”; the “effect on scratching sessions and periods” value (topical formulation 2% w/w (percent increased four times versus 0.5%)) is “did not reduce the scratching sessions and periods”.
